Laboratory results as given in patent US9409952B2, “Peptide-compound cyclization method” (Chugai Seiyaku Kabushiki Kaisha, priority 2011, dated 2016).
Read-outs that look alike come from different tables or passages of the source. Starred links: 1 amine or outer side, 2 acyl side, 3 side chain; linkers in the order of their positions; H or OH if unused. Positions of bridges follow the written chain, without caps; N, C: chain ends. Non-standard residues stand in square brackets, D forms with d. Residues, ends and D or L forms follow the SMILES beside them. *: point of attachment. NMePhe(3-Cl) = CN[C@@H](Cc1cccc(Cl)c1)C(=O)O; NMeF = CN[C@@H](Cc1ccccc1)C(=O)O; NMeI = CC[C@H](C)[C@H](NC)C(=O)O; NMeβAla = CN(CCC(=O)[*:2])[*:1]; Aoc(2) = CCCCCC[C@H](N)C(=O)O; NMeL = CN[C@@H](CC(C)C)C(=O)O; NMeV = CN[C@H](C(=O)O)C(C)C; NMeA = CN[C@@H](C)C(=O)O; Piperidide = C1CCN(*)CC1; dNMeA = CN[C@H](C)C(=O)O; β3hA = C[C@H](N)CC(=O)O; NPrGly = CCCNCC(=O)O; Sar = CNCC(=O)O; tBu = CC(C)(C)*

Assays:
[1] = Metabolic stability in human hepatic microsome; format: in vitro ADME
[2] = PAMPA (parallel artificial membrane permeability assay); format: in vitro ADME; settings: for Papp at 18 hours, 50 µM: PAMPA
Method in brief: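 Artificial membrane was 10% (w/v) egg lecithin plus 0.5% (w/v) cholesterol in dodecane on a PVDF filter. A 10 mM DMSO stock was added at 0.5% (v/v) to donor buffer (50 mM MOPSO, pH 6.5, 5.0% glycocholic acid). After 18 h at 37 °C, LC/MS or LC/UV gave donor and acceptor levels for Pe.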

[3] = membrane permeation rate (Pe), 50 mM MOPSO buffer pH 6.5 with 5.0% glycocholic acid, 37° C., 18 hours, read-out: iPAMPA Pe
[4] = microsomes, pH 7.4, human hepatic microsome, NADPH(+), read-out: CL NADPH(+)
[5] = human, microsomes, pH 7.4, CL NADPH(+)

SMILES | Papp at 18 hours, 50 µM [2, 3] [×10⁻⁶ cm/s] | microsomal CLint at 1 uM [1, 4] [µL/min/mg] | other results
CC[C@H](C)[C@H]1C(=O)N(C)[C@@H](C)C(=O)N[C@@H](COC(C)(C)C)C(=O)N(C)[C@@H](CC(C)C)C(=O)N(C)[C@@H](CC(C)C)C(=O)N[C@H](C(=O)N2CCCCC2)CC(=O)N(C)[C@H](C)C(=O)N(C)[C@@H](Cc2ccccc2)C(=O)N[C@@H](C)C(=O)N(C)[C@@H](CC(C)C)C(=O)N[C@@H]([C@@H](C)O)C(=O)N[C@@H](Cc2ccccc2)C(=O)N1C [DP-63] ([dNMeA][NMeF]A[NMeL]TF[NMeI][NMeA]S(tBu)[NMeL][NMeL]D-Piperidide; lactam N-12) | 17 |  | microsomal CLint at 1 uM ([1]; human, human hepatic microsomes, pH 7.4, human hepatic microsome, NADPH(+), read-out: CL NADPH(+)): 58 µL/min/mg
CC[C@H](C)[C@H](NC(=O)[C@H](CC(C)C)N(C)C(=O)[C@H](CC(C)C)NC(=O)[C@H](C)N(C)C(=O)[C@@H]1CC(=O)N[C@H](C(C)C)C(=O)N(C)[C@@H](CC(C)C)C(=O)N(C)[C@@H](CC(C)C)C(=O)N[C@@H](C)C(=O)N[C@@H](Cc2ccccc2)C(=O)N[C@@H]([C@@H](C)O)C(=O)N[C@@H](CC(C)C)C(=O)N(C)[C@@H](Cc2ccccc2)C(=O)N(C)[C@@H](CC(C)C)C(=O)N1)C(=O)N1CCCCC1 [DP-944] ([dV][NMeL][NMeL]AFTL[NMeF][NMeL]D[NMeA]L[NMeL]I-Piperidide; lactam N-10) | 0.1 | 20 | 
CC(C)C[C@@H]1NC(=O)[C@H](C)NC(=O)C[C@@H](C(=O)N(C)[C@@H](C)C(=O)N[C@H](C(=O)N(C)[C@@H](Cc2ccccc2)C(=O)N(C)[C@@H](CC(C)C)C(=O)N[C@@H](C)C(=O)N2CCCCC2)[C@@H](C)O)NC(=O)[C@H](Cc2ccccc2)N(C)C(=O)[C@H](CC(C)C)N(C)C(=O)[C@H](C)NC(=O)[C@H](Cc2ccccc2)N(C)C(=O)[C@H](CC(C)C)N(C)C1=O [DP-574] (AL[NMeL][NMeF]A[NMeL][NMeF]D[NMeA]T[NMeF][NMeL]A-Piperidide; lactam N-8) | 1.2 | 113 | 
CC(C)C[C@H]1C(=O)N[C@H](C(=O)N2CCCCC2)CC(=O)N(C)CC(=O)N[C@@H]([C@@H](C)O)C(=O)N(C)[C@@H](C)C(=O)N(C)[C@@H](Cc2ccccc2)C(=O)NCC(=O)N(C)[C@@H](Cc2ccccc2)C(=O)N(C)[C@@H](CC(C)C)C(=O)N(C)[C@@H](CC(C)C)C(=O)N1C [DP-175] ([Sar]T[NMeA][NMeF]G[NMeF][NMeL][NMeL][NMeL]D-Piperidide; lactam N-10) | 48 | 94 | 
CC[C@H](C)[C@@H]1NC(=O)[C@H](C)NC(=O)C[C@H](C)NC(=O)[C@H](CC(C)C)NC(=O)[C@H](CC(C)C)NC(=O)[C@H](C(C)C)NC(=O)[C@H](C)N(C)C(=O)[C@H](CC(C)C)NC(=O)CNC(=O)[C@H]([C@@H](C)O)NC(=O)[C@H](CC(C)C)N(C)C(=O)[C@@H]2CCCN2C1=O [DP-808] (cyclo(AIP[NMeL]TGL[NMeA]VLL[β3hA])) |  |  | microsomal CLint at 1 uM [1, 5]: 33 µL/min/mg; Papp at 18 hours, 50 µM ([2]; pH 6.5): 3.3 ×10⁻⁶ cm/s
CC(C)C[C@H]1C(=O)N[C@@H](C)C(=O)N(C)[C@@H](C)C(=O)N[C@H](C(=O)N(C)[C@@H](Cc2ccccc2)C(=O)N[C@@H](C)C(=O)N2CCCCC2)CC(=O)N(C)[C@@H](C)C(=O)N(C)[C@@H](C(C)C)C(=O)N(C)[C@@H](C)C(=O)N[C@@H]([C@@H](C)O)C(=O)N(C)[C@@H](C)C(=O)N[C@@H](Cc2ccccc2)C(=O)N1C [DP-458] ([NMeA][NMeV][NMeA]T[NMeA]F[NMeL]A[NMeA]D[NMeF]A-Piperidide; lactam N-10) | 7.7 | 10 | 
CC(C)C[C@H]1C(=O)N(C)[C@@H](Cc2ccccc2)C(=O)N[C@@H](C)C(=O)N2CCC[C@H]2C(=O)N(C)[C@@H](CC(C)C)C(=O)N(C)[C@@H](Cc2ccccc2)C(=O)N(C)[C@@H](C(C)C)C(=O)N[C@H](C(=O)N2CCCCC2)CC(=O)N[C@H](C(C)C)C(=O)N[C@@H]([C@@H](C)O)C(=O)N(C)CC(=O)N1C [DP-66] ([dV]T[Sar][NMeL][NMeF]AP[NMeL][NMeF][NMeV]D-Piperidide; lactam N-11) |  |  | microsomal CLint at 1 uM [1, 5]: 69 µL/min/mg; Papp at 18 hours, 50 µM ([2]; pH 6.5): 19 ×10⁻⁶ cm/s
CC[C@H](C)[C@H](NC(=O)[C@@H](NC(=O)[C@@H]1CC(=O)N(C)CCC(=O)N[C@@H](Cc2ccccc2)C(=O)N(C)[C@@H](Cc2ccccc2)C(=O)N(C)[C@@H](CC(C)C)C(=O)N[C@@H]([C@@H](C)O)C(=O)N(C)[C@@H](C)C(=O)N(C)[C@@H](CC(C)C)C(=O)N[C@@H](C(C)C)C(=O)N(C)[C@@H](CC(C)C)C(=O)N[C@@H](COC(C)(C)C)C(=O)N(C)[C@@H](CC(C)C)C(=O)N1)C(C)C)C(=O)N1CCCCC1 [DP-954] ([NMeβAla]F[NMeF][NMeL]T[NMeA][NMeL]V[NMeL]S(tBu)[NMeL]DVI-Piperidide; lactam N-12) | 0.1 | 26 | 
C=C1CCC(=O)N[C@@H](CC(C)C)C(=O)N(C)[C@@H]([C@@H](C)CC)C(=O)N(C)[C@@H](CC(C)C)C(=O)NCC(=O)N(C)[C@@H](C)C(=O)N[C@@H](Cc2ccccc2)C(=O)N[C@@H]([C@@H](C)O)C(=O)N(C)[C@@H](CC(C)C)C(=O)N[C@@H](Cc2ccccc2)C(=O)N(C)[C@@H](C(C)C)C(=O)N[C@H](C(=O)N2CCCCC2)Cc2cccc1c2 [DP-882] | 1.8 | 32 | 
CCCCCC[C@@H]1NC(=O)[C@H](CC(C)C)N(C)C(=O)[C@@H]2CCCN2C(=O)[C@H](C)N(C)C(=O)[C@H](Cc2ccccc2)N(C)C(=O)[C@H](Cc2ccccc2)N(C)C(=O)CN(C)C(=O)[C@H]([C@@H](C)O)NC(=O)[C@H](C)N(C)C(=O)C[C@H](C)NC(=O)[C@H](C(C)C)N(C)C1=O [DP-774] (cyclo([Aoc(2)][NMeV][β3hA][NMeA]T[Sar][NMeF][NMeF][NMeA]P[NMeL])) |  |  | microsomal CLint at 1 uM [1, 5]: 71 µL/min/mg; Papp at 18 hours, 50 µM ([2]; pH 6.5): 26 ×10⁻⁶ cm/s
CCCN1CC(=O)N[C@@H](CC(C)C)C(=O)N[C@@H]([C@@H](C)O)C(=O)N(C)CC(=O)N(C)[C@@H](Cc2ccccc2)C(=O)N[C@@H](C)C(=O)N(C)[C@@H](Cc2ccccc2)C(=O)N(C)[C@@H](CC(C)C)C(=O)N(C)[C@@H]([C@@H](C)CC)C(=O)N(C)[C@@H](CC(C)C)C(=O)N[C@H](C(=O)N2CCCCC2)CC1=O [DP-544] ([NPrGly]LT[Sar][NMeF]A[NMeF][NMeL][NMeI][NMeL]D-Piperidide; lactam N-11) | 42 | 45 | 
CC[C@H](C)[C@H]1C(=O)N[C@@H](Cc2ccccc2)C(=O)N[C@@H]([C@@H](C)O)C(=O)N2CCC[C@H]2C(=O)N[C@@H](Cc2ccccc2)C(=O)N[C@H](C(=O)N2CCCCC2)CC(=O)N(C)CCC(=O)N(C)[C@@H](CC(C)C)C(=O)N(C)[C@@H](CC(C)C)C(=O)N[C@@H](CC(C)C)C(=O)NCC(=O)N1C [DP-239] ([NMeβAla][NMeL][NMeL]LG[NMeI]FTPFD-Piperidide; lactam N-11) | 25 | 109 | 
CC(C)C[C@H]1C(=O)N[C@H](C(=O)N(C)[C@@H](Cc2ccccc2)C(=O)N(C)[C@@H](Cc2ccccc2)C(=O)N[C@@H](C)C(=O)N2CCCCC2)CC(=O)N[C@H](C)C(=O)N(C)[C@@H](C)C(=O)N(C)[C@@H](Cc2ccccc2)C(=O)N(C)[C@@H](CC(C)C)C(=O)N[C@@H]([C@@H](C)O)C(=O)N(C)[C@@H](C)C(=O)N(C)[C@@H](CC(C)C)C(=O)N[C@@H](C(C)C)C(=O)N1C [DP-204] ([dA][NMeA][NMeF][NMeL]T[NMeA][NMeL]V[NMeL]D[NMeF][NMeF]A-Piperidide; lactam N-10) | 22 | 48 | 
CC[C@H](C)[C@H](NC(=O)[C@H](Cc1ccccc1)N(C)C(=O)[C@H](Cc1cccc(Cl)c1)N(C)C(=O)[C@H](C)N(C)C(=O)[C@@H]1CCCN1C(=O)[C@@H]1CC(=O)N[C@@H](C)C(=O)N(C)[C@@H](CC(C)C)C(=O)N(C)[C@@H](Cc2ccccc2)C(=O)N[C@@H]([C@@H](C)O)C(=O)N(C)[C@@H](Cc2ccccc2)C(=O)N[C@@H](CC(C)C)C(=O)N1)C(=O)N1CCCCC1 [DP-915] (A[NMeL][NMeF]T[NMeF]LDP[NMeA][NMePhe(3-Cl)][NMeF]I-Piperidide; lactam N-7) |  | 89 | iPAMPA Pe ([2]; membrane permeation rate (Pe), 50 mM MOPSO buffer pH 6.5 with 5.0% glycocholic acid, 37° C., 18 hours): 1.0E−07
CC(C)C[C@H]1C(=O)N[C@@H](Cc2ccccc2)C(=O)N(C)[C@@H](C(C)C)C(=O)N[C@@H]([C@@H](C)O)C(=O)N(C)[C@@H](C)C(=O)NCC(=O)N(C)[C@@H](Cc2ccccc2)C(=O)N[C@H](C(=O)N(C)[C@@H](Cc2ccccc2)C(=O)N[C@@H](C)C(=O)N2CCCCC2)CC(=O)N(C)CCC(=O)N[C@@H](C(C)C)C(=O)N1C [DP-352] ([NMeβAla]V[NMeL]F[NMeV]T[NMeA]G[NMeF]D[NMeF]A-Piperidide; lactam N-10) | 25 | 66 | 
CC[C@H](C)[C@@H]1NC(=O)[C@H](C)N(C)C(=O)[C@H](C)N(C)C(=O)[C@H]([C@@H](C)O)NC(=O)CN(C)C(=O)[C@H](C(C)C)N(C)C(=O)[C@H](CC(C)C)N(C)C(=O)[C@H](Cc2ccccc2)NC(=O)[C@@H](C)N(C)C(=O)C[C@@H](C(=O)N(C)[C@@H](Cc2ccccc2)C(=O)N(C)[C@@H](Cc2ccccc2)C(=O)N[C@@H](C)C(=O)N2CCCCC2)NC1=O [DP-506] ([dNMeA]F[NMeL][NMeV][Sar]T[NMeA][NMeA]ID[NMeF][NMeF]A-Piperidide; lactam N-10) | 20 | 14 | 
CC(C)C[C@H]1C(=O)N(C)[C@@H](C)C(=O)N(C)[C@@H](Cc2ccccc2)C(=O)N[C@@H]([C@@H](C)O)C(=O)N(C)[C@@H](C)C(=O)N(C)[C@@H](Cc2ccccc2)C(=O)N[C@H](C(=O)N(C)[C@@H](Cc2ccccc2)C(=O)N[C@@H](C)C(=O)N2CCCCC2)CC(=O)N(C)[C@@H](C)C(=O)N(C)[C@@H](C)C(=O)N(C)[C@@H](CC(C)C)C(=O)N[C@@H](C)C(=O)N1C [DP-344] ([NMeA][NMeA][NMeL]A[NMeL][NMeA][NMeF]T[NMeA][NMeF]D[NMeF]A-Piperidide; lactam N-11) | 22 | 30 | 
